# In patent publication US11236086B2, “Substituted pyrrolopyridines as inhibitors of activin receptor-like kinase” (BLUEPRINT MEDICINES CORPORATION, priority 2017, dated 2022):
# Biological target: T1, ALK2R206H (mutant ALK2, N-terminally tagged with GST) (Homo sapiens, UniProt Q04771, R206H)
# T1 construct: purchased Carna Bioscience or ThermoFisher 09-148 or PV6232
# T1 sequence (Q04771 21-509 R206H): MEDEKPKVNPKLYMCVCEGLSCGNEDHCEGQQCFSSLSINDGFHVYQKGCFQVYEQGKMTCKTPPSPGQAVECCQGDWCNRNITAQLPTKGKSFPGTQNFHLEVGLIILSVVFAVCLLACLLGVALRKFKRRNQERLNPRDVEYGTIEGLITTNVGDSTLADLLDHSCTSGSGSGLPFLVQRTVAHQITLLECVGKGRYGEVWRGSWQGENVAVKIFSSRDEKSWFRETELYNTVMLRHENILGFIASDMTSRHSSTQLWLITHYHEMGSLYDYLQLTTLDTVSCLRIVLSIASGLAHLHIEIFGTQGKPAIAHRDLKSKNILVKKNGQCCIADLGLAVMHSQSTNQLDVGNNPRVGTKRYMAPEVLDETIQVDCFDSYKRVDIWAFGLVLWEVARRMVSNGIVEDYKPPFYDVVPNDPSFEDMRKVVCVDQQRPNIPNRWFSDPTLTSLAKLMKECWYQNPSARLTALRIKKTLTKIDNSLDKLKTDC
# Experiment: ALK binding assay (LANTHASCREEN TR-FRET competitive binding, displacement of Kinase Tracer 178)
# Details: read-out: Binding Assay (IC50 class)
# Protocol: Example 10 ALK Binding Assays
# Binding assays were conducted using the LANTHASCREEN® technology (ThermoFisher Scientific). LANTHASCREEN® is a competitive binding, displacement assay where the assumed steady state occupancy of the binding site is measured using a time-resolved, fluorescence energy transfer (TR-FRET) readout between a fluorescent tracer and Europium (Eu)-tagged antibody specific for the kinase or expression tag (e.g., GST) of interest. Displacement of the tracer by a compound of the disclosure reduces, and is directly proportional to, the TR-FRET between the tracer and the antibody. Tracer was used at a concentration equal to or near to its Kd for the kinase. The Eu-tagged antibody was typically used in excess to ensure sampling of all competent protein capable of binding the tracer.
# For these assays, a mutant ALK2 was used that was N-terminally tagged with GST (ALK2R206H Carna Bioscience (09-148) or ALK2R206H ThermoFisher (PV6232)); a Eu-tagged anti-GST antibody (ThermoFisher) and Kinase Tracer 178 (ThermoFisher).
# In all cases, the kinase (2-5 nM) was mixed with Eu-tagged antibody (4-10 nM) mix and tracer (50 nM) were incubated with test compound titrations prepared in 100% DMSO (1% DMSO final) for 30 minutes at room temperature. All reagents and compounds were dissolved in Kinase Buffer A (ThermoFisher) to achieve the final concentration. The plates were read on a PerkinElmer EnVision® multilabel plate reader or a BioTek Synergy Neo plate reader, and the assay signal was represented as a ratio of the TR-FRET emission (λex 330 nm, λ^em […] and λ^em 665 nm). This readout was normalized to 0% and 100% inhibited control wells, plotted against inhibitor concentration, and fitted to a 4-parameter log dose response curve.
# The results of this assay are shown in Table 3 in the column labelled “Binding Assay” wherein “A” represents an IC50 of less than or equal to 10 nM; “B” represents an IC50 of greater than 10 nM and less than or equal to 50 nM; and “C” represents an IC50 of greater than 50 nM. Blank values in the table indicate that the particular compound was not tested in this assay.
row,IC50 [µM],Structure (SMILES)
1,≤ 0.01,CCOC(=O)N1CCN(c2ccnc3[nH]c(-c4cccc(OC)n4)cc23)CC1 [Compound 85]
2,≤ 0.01,Cn1cnc(-c2cc3c(N4CCN(C(=O)O[C@H]5CC(F)(F)C5(F)F)CC4)ccnc3[nH]2)c1 [Compound 402]
3,0.01 to 0.05,Cn1cc(-c2cc3c(N4CCN(C(=O)[C@@H]5CCCO5)CC4)ccnc3[nH]2)cn1 [Compound 81]
4,≤ 0.01,CCOC(=O)N1CCN(c2ccnc3[nH]c(-c4cc(C)ccn4)cc23)CC1 [Compound 25]
5,0.01 to 0.05,Cc1ccc(-c2cc3c(N4CCN(C(=O)C5CC5)CC4)ccnc3[nH]2)c(F)c1 [Compound 63]
6,0.01 to 0.05,O=C(C1CC1)N1CCN(c2ccnc3[nH]c(-c4cccnc4)cc23)CC1 [Compound 4]
7,0.01 to 0.05,CCCOc1ccc(-c2cc3c(N4CCN(C(=O)C5CC5)CC4)ccnc3[nH]2)cc1 [Compound 196]
8,≤ 0.01,CCOC(=O)N1CCN(c2ccnc3[nH]c(-c4ccc(C)nc4)cc23)CC1 [Compound 27]
9,≤ 0.01,Cc1nc(-c2[nH]c3nccc(N4CCN(C(=O)OC5COC5)CC4)c3c2C)sc1C [Compound 318]
10,≤ 0.01,Cc1nnc(-c2cc3c(N4CCN(C(=O)OC5COC5)CC4)ccnc3[nH]2)s1 [Compound 181]
11,0.01 to 0.05,CCC(C)CC(=O)N1CCN(c2ccnc3[nH]c(-c4cnn(C)c4)cc23)CC1 (stereo not drawn) [Compound 83]
12,≤ 0.01,Cc1c(-c2cc3c(N4CCN(C(=O)OC5COC5)CC4)ccnc3[nH]2)cnn1C [Compound 156]
13,≤ 0.01,CCOCC(C)OC(=O)N1CCN(c2ccnc3[nH]c(-c4cnn(C)c4)cc23)CC1 (stereo not drawn) [Compound 246]
14,0.01 to 0.05,N#Cc1cccc(-c2cc3c(N4CCN(C(=O)C5CC5)CC4)ccnc3[nH]2)c1 [Compound 44]
15,≤ 0.01,CC(C)(O)c1csc(-c2cc3c(N4CCN(C(=O)OC5COC5)CC4)ccnc3[nH]2)n1 [Compound 379]
16,≤ 0.01,Cn1cc(-c2cc3c(N4CCN(C(=O)OCCC5CC5)CC4)ccnc3[nH]2)cn1 [Compound 141]
17,0.01 to 0.05,Cc1ccc(-c2cc3c(N4CCN(C(=O)C5CC5)CC4)ccnc3[nH]2)cc1 [Compound 16]
18,0.01 to 0.05,CCOC(=O)N1CCN(c2ccnc3[nH]c(-c4cnc(C)nc4)cc23)CC1 [Compound 31]
19,0.01 to 0.05,O=C(C1CC1)N1CCN(c2ccnc3[nH]c(-c4ccccc4F)cc23)CC1 [Compound 18]

row,IC50 [µM],Structure (SMILES)
1,≤ 0.01,COc1ccc(-c2cc3c(N4CCN(C(=O)C5CC5)CC4)ccnc3[nH]2)c(F)c1 [Compound 138]
2,≤ 0.01,N#Cc1csc(-c2cc3c(N4CCN(C(=O)OC5COC5)CC4)ccnc3[nH]2)n1 [Compound 230]
3,0.01 to 0.05,CC(C)(C)c1cnc(-c2cc3c(N4CCN(C(=O)OC5COC5)CC4)ccnc3[nH]2)s1 [Compound 373]
4,≤ 0.01,Cn1cc(-c2cc3c(N4CCN(C(=O)OCC5(C)COC5)CC4)ccnc3[nH]2)cn1 [Compound 236]
5,0.01 to 0.05,CCc1ccc(-c2cc3c(N4CCN(C(=O)C5CC5)CC4)ccnc3[nH]2)c(Cl)c1 [Compound 226]
6,0.01 to 0.05,O=C(OC1COC1)N1CCN(c2ccnc3[nH]c(-c4cnccn4)cc23)CC1 [Compound 74]
7,≤ 0.01,COc1cnc(-c2cc3c(N4CCN(C(=O)OC5COC5)CC4)ccnc3[nH]2)c(C#N)c1 [Compound 346]
8,0.01 to 0.05,COc1ccc(-c2cc3c(N4CCN(C(=O)C5CC5)CC4)ccnc3[nH]2)cn1 [Compound 62]
9,≤ 0.01,O=C(OC1COC1)N1CCN(c2ccnc3[nH]c(-c4csc(C(=O)N5CCCC5)n4)cc23)CC1 [Compound 448]
10,0.01 to 0.05,CC(C)Oc1ccc(-c2cc3c(N4CCN(C(=O)C5CC5)CC4)ccnc3[nH]2)c(Cl)c1 [Compound 364]
11,≤ 0.01,CCOC(=O)N1CCN(c2ccnc3[nH]c(-c4ncc(C#N)cn4)cc23)CC1 [Compound 61]
12,≤ 0.01,Cn1cc(-c2[nH]c3nccc(N4CCN(C(=O)OC5COC5)CC4)c3c2C2CC2)cn1 [Compound 293]
13,0.01 to 0.05,CCC(=O)c1c(-c2cn(C)c(C)n2)[nH]c2nccc(N3CCN(C(=O)OC4COC4)CC3)c12 [Compound 404]
14,≤ 0.01,Cn1cc(-c2cc3c(N4CCN(C(=O)[C@@H]5CCOC5)CC4)ccnc3[nH]2)cn1 [Compound 79]
15,> 0.05,Cn1cc(C#N)c(-c2cc3c(N4CCN(C(=O)OC5COC5)CC4)ccnc3[nH]2)n1 [Compound 211]
16,0.01 to 0.05,Cc1nnc(-c2cc3c(N4CCN(C(=O)OC5COC5)CC4)ccnc3[nH]2)o1 [Compound 110]
17,≤ 0.01,O=C(C1CC1)N1CCN(c2ccnc3[nH]c(-c4cc(F)cc(F)c4)cc23)CC1 [Compound 88]
18,0.01 to 0.05,Cn1cc(-c2cc3c(N4CCN(C(=O)C(C)(C)CO)CC4)ccnc3[nH]2)cn1 [Compound 101]
19,0.01 to 0.05,CC(C)C(=O)N1CCN(c2ccnc3[nH]c(-c4cnn(C)c4)cc23)CC1 [Compound 10]

row,IC50 [µM],Structure (SMILES)
1,≤ 0.01,Cn1cc(-c2cc3c(N4CCN(C(=O)OCC5(C)CC5)CC4)ccnc3[nH]2)cn1 [Compound 142]
2,0.01 to 0.05,Cn1cc(-c2cc3c(N4CCN(C(=O)[C@H]5CC[C@@H](O)CC5)CC4)ccnc3[nH]2)cn1 [Compound 223]
3,0.01 to 0.05,CCOC(=O)N1CCN(c2ccnc3[nH]c(-c4cnn(C)c4)c(S(C)(=O)=O)c23)CC1 [Compound 339]
4,0.01 to 0.05,Cn1cnc(-c2cc3c(N4CCN(C(=O)OC5COC5)CC4)ccnc3[nH]2)n1 [Compound 106]
5,≤ 0.01,O=C(OC1COC1)N1CCN(c2ccnc3[nH]c(-c4ncccn4)cc23)CC1 [Compound 73]
6,> 0.05,CCOc1ccc(-c2cc3c(N4CCN(C(=O)C5CC5)CC4)ccnc3[nH]2)c(Cl)c1 [Compound 309]
7,0.01 to 0.05,Cn1cc(-c2cc3c(N4CCN(C(=O)CC#N)CC4)ccnc3[nH]2)cn1 [Compound 5]
8,≤ 0.01,CCOC(=O)N1CCN(c2ccnc3[nH]c(-c4cc(C)ns4)cc23)CC1 [Compound 47]
9,0.01 to 0.05,O=C(C1CC1)N1CCN(c2ccnc3[nH]c(-c4ccc(F)cc4F)cc23)CC1 [Compound 87]
10,0.01 to 0.05,COCC(C)OC(=O)N1CCN(c2ccnc3[nH]c(-c4cnn(C)c4)cc23)CC1 (stereo not drawn) [Compound 165]
11,≤ 0.01,Cn1cc(-c2cc3c(N4CCN(C(=O)[C@H]5C[C@H](F)C5)CC4)ccnc3[nH]2)cn1 [Compound 94]
12,0.01 to 0.05,CC(=O)Nc1ccc(-c2cc3c(N4CCN(C(=O)OC5COC5)CC4)ccnc3[nH]2)nc1 [Compound 353]
13,≤ 0.01,Cn1cc(-c2cc3c(N4CCN(C(=O)OCCOC(C)(C)C)CC4)ccnc3[nH]2)cn1 [Compound 314]
14,0.01 to 0.05,O=C(C1CC1)N1CCN(c2ccnc3[nH]c(-c4ccc(OCc5ccccc5)cc4)cc23)CC1 [Compound 406]
15,≤ 0.01,Cn1cc(-c2cc3c(N4CCN(C(=O)OC5COC5)CC4)ccnc3[nH]2)c(C#N)n1 [Compound 209]
16,≤ 0.01,Cc1nc(-c2cc3c(N4CCN(C(=O)OC5CSC5)CC4)ccnc3[nH]2)cs1 [Compound 261]
17,> 0.05,CC(C)c1[nH]ncc1-c1cc2c(N3CCN(C(=O)OC4COC4)CC3)ccnc2[nH]1 [Compound 239]
18,0.01 to 0.05,Cn1cc(-c2cc3c(N4CCN(C(=O)OCCC(C)(C)C)CC4)ccnc3[nH]2)cn1 [Compound 240]
19,≤ 0.01,Cc1nc(-c2cc3c(N4CCN(C(=O)OC5COC5)CC4)ccnc3[nH]2)oc1C [Compound 158]
